Laboratory results: US6291496A, “Treating cancers associated with overexpression of class I family of receptor tyrosine kinases” (priority 1999, dated 2001)
Converted amounts (≈) assume the structure as drawn.

How the values were obtained:
[1] = test system: HER-2/neu in 184B5/HER cells; assay: immunoblot for HER-2/neu in 184B5/HER cells; assay type: cell-based, human; conditions: 25 μM ciglitazone or 20 μM 15-d-PGJ2, 24 hours
Source text: The 184B5/HER cell line was obtained from a collaborator and was derived by stably transfecting 184B5 cells with a mutationally activated HER-2/neu oncogene; these cells form rapidly growing tumors when injected into athymic nude mice. The 184B5/HER cell line is described in Pierce, J. H., et al., Oncogene 6, 1189-1194 (1991). The BT-474 cell line is a human breast cancer adenocarcinoma cell line which overexpresses HER-2/neu, and was obtained from the American Type Culture Collection (Manassas, Va.) and bears accession number ATCC HBT-20.
184B5/HER cells were maintained in MEM-KBM mixed in a ratio of 1:1 (basal medium) containing epidermal growth factor (10 ng/ml), hydrocortisone (0.5 μg/ml), transferrin (10 μg/ml), gentamicin (5 μg/ml) and insulin (10 μg/ml) (growth medium). […] cells were grown to 60% confluence, trypsinized with 0.05% trypsin-2 mM ethylenediaminotetraacetic acid, and plated for experimental use. […]
184B5/HER cells were treated with vehicle (0.01% dimethylsulfoxide), 25 μM ciglitazone (Biomol, Plymouth Meeting, Pennsylvania) or 20 μM 15-d-PGJ2 (Biomol, Plymouth Meeting, Pennsylvania) for 24 hours. […] The protein concentration of the supernatant was measured by the method of Lowry, O. H., et al, J. Biol. Chem. 193, 265-275 (1951). […]

HER-2/neu mRNA = assay: Northern blotting for HER-2/neu mRNA in 184B5/HER cells; assay type: cell-based, human; conditions: 25 μM ciglitazone or 20 μM 15-d-PGJ2
Method: Northern blotting was performed to evaluate whether PPARγ ligands decrease levels of HER-2/neu mRNA. 184B5/HER cells were treated with vehicle (0.01% dimethyl sulfoxide), 25 μM ciglitazone or 20 μM 15-d-PGJ2. Total cellular RNA was isolated from cell monolayers using an RNA isolation kit from Qiagen Inc. 10 μg of RNA was added to each lane. The 10 μg of total cellular RNA per lane were electrophoresed in a formaldehyde-containing 1.2% agarose gel and transferred to nylon-supported membranes. The blot was hybridized with probes that recognized HER-2/neu mRNA (Santa Cruz Biotechnology, Inc., Santa Cruz, Calif.) and 18S rRNA cDNA (Ambion, Inc., Austin, Tex.).

EGFR promoter = assay: transient transfection assay, human EGFR promoter construct ligated to luciferase, 184B5 cells; assay type: cell-based; conditions: 0-25 μM, 24 hours, FIG. 2
Method: To determine whether PPARγ ligands inhibit EGFR promoter activity, a transient transfection assay was performed, 184B5 cells were transfected with 1.8 μg of a human EGFR promoter construct ligated luciferase (-1100/-19) and 0.2 μg pSVβgal (Promega Corp., Madison, Wis.). The EGFR promoter is described in Hudson, L. G., et al, Cell 62, 1165-1175 (1990), the whole of which is incorporated herein by reference. 184B5 cells were seeded at a density of 5×10^4 cells/well in 6-well dishes and grown to 50-60% confluence. For each well 2 μg of […] DNA were introduced into cells using 8 μg of LIPOFECTAMINE (Life Technologies, Inc., Grand Island, N.Y.) as per the manufacturers instructions. Following transfection, the cells were treated with ciglitazone (0, 5, 10, 15, 20 and 25 μM) or 15-d-PGJ2 (0, 5, 10, 15, 20, and 25 μM) for 24 hours. The activities of luciferase and β-galactosidase were measured in cellular extract as described in Mestre, J. R, et al, Cancer Res. 57, 1081-1085 (1997). The results are shown in FIG. 2 where luciferase activity represents data that have been normalized to β-galactosidase activity (columns, means; bars, S. D., n=6; * means p<0.01 compared to control).

[2] = test system: EGFR in 184B5 mammary epithelial cells; assay: immunoblot for EGFR in 184B5 cells; assay type: cell-based, human; conditions: ciglitazone 5-30 μM or 15-d-PGJ2 5, 10 μM, 24 hours
Method: The cells used were 184B5 cells. The 184B5 cell line was obtained from a collaborator and is an immortalized but non-tumorigenic human breast epithelial cell line that was established from a reduction mammaplasty and is described in Stampler, M. R, et al, Proc. Natl. Acad. Sci. USA 82, 2394-2398 (1985).
184B5 cells were maintained in MEM-KBM mixed in a ratio of 1:1 (basal medium) containing epidermal growth factor (10 ng/ml), hydrocortisone (0.5 μg/ml), transferrin (10 μg/ml), gentamicin (5 μg/ml), and insulin (10 μg/ml) (growth medium). 184B5 cells were grown to 60% confluence, trypsinized with 0.05% trypsin-2 mM ethylenediaminotetraacetic acid and plated for experimental use.
184B5 cells were treated with vehicle (0.01% dimethyl sulfoxide), ciglitazone (5, 10, 20, 30 μM) or 15-d-PGJ2 (5, 10 μM) for 24 hours. Cell lysates were prepared in RIPA buffer. Lysates were sonicated for 20 seconds on ice and centrifuged at 10,000×g for 10 minutes to sediment the particulate material. The protein concentration of the supernatant was measured by the method of Lowry,. O. H., et al, J. Biol. Chem. 193, 265-275 (1951). Cellular lysate protein (100 μg/lane) was loaded onto a 10% SDS-polyacrylamide gel, electrophoresed and subsequently transferred onto a nitrocellulose membrane(Schleicher & Schuell Keene, N. H.). […]

HER-2/neu promoter = assay: transient transfection assay, human HER-2/neu promoter construct ligated to luciferase, 184B5/HER cells; assay type: cell-based; conditions: 0-25 μM, 24 hours, FIG. 1
Method: To determine whether PPARγ ligands inhibit HER-2/neu promoter activity, a transient transfection assay was performed. 184B5/HER cells were transfected with 1.8 μg of a human HER-21neu promoter construct ligated to luciferase (-1571/--24) and 0.2 μg pSVβgal (Promega Corp., Madison Wis.). The HER-2/neu promoter (-1571/--24) is described in Hudson, L. G. et al, J. Biol. Chem. 265, 4389-4393 (3/90), the whole of which is incorporated herein by reference. The promoter constructs are described in Hudson, L. G., et al, Cell 62, 1165-1175(1990). 184B5/HER cells were seeded at a density of5×10^4 cells well in 6-well dishes and grown to 50-60% confluence. For each well, 2 μg of […] DNA were introduced into cells using 8 μg of LIPOFECTAMINE (Life Technologies, Inc., Grand Island, N.Y.) as per the manufacturer's instructions. Following transfection, the cells were treated with ciglitazone (0, 5, 10, 15, 20 and 25 μM) or 15d-PGJ2 (0, 5, 10, 15, 20 and 25 μM) for 24 hours.
The activities of luciferase and β-galactosidase were measured in cellular extract as described in Mestre, J. R. et al, Cancer Res. 57, 1081-1085 (1997).

[3] = target: human PPARγ binding domain; conditions: scintillation proximity assay, radioligand [3H]BRL 49653; values reported in Henke et al, Collins et al, Cobb et al; cited from earlier work
[4] = test system: head and neck carcinoma where EGFR is overexpressed; assay: Example VII: head and neck carcinoma; assay type: in vivo, human; conditions: after the 12 weeks of CETUXIMAB and cisplatin, oral 5 mg/kg twice daily for 12 weeks
Method: Concurrently cisplatin is infused every four weeks at 60 mg/m^2.

[5] = test system: HER-2/neu positive breast cancer; assay: Example I: adjuvant therapy after mastectomy; assay type: in vivo, human; conditions: patient, oral 5 mg/kg twice per day for five years after mastectomy
[6] = test system: non-small cell lung carcinoma where EGFR is overexpressed; assay: Example VI: non-small cell lung carcinoma metastasized to liver; assay type: in vivo, human; conditions: patient, oral 5 mg/kg twice daily
Method: After one month, PPARγ ligand administration is continued in combination with infusion of cisplatin every four weeks at 60 mg/m^2 for 12 more weeks.

[7] = test system: HER-2/neu positive breast cancer; assay: Example II: adjuvant therapy with PPARγ ligand and HERCEPTIN; assay type: in vivo, human; conditions: patient, oral 5 mg/kg twice daily for one year, with HERCEPTIN 250 mg IV loading then 10 weekly doses of 125 mg
[8] = test system: HER-2/neu positive breast cancer metastasized to bone; assay: Example IV: breast cancer metastasized to bone; assay type: in vivo, human; conditions: patient after failure of prior chemotherapy, oral 5 mg/kg twice daily plus HERCEPTIN
Method: After 90 days, oral cyclophosphamide at a dose of 3 mg/kg/day and doxorubicin administered intravenously weekly at a dose of 20 mg/m^2, are added to the drug regimen.

physchem = conditions: ph 7.4 buffer, pH 7.4, aqueous buffer
[9] = test system: HER-2/neu positive breast cancer metastasized to lung and liver; assay: Example III: breast cancer metastasized to lung and liver; assay type: in vivo, human; conditions: patient, oral 5 mg/kg twice daily
Method: After three months, the PPARγ ligand administration is continued in combination regimen with Taxol® at a dose of 175 mg/m^2 administered intravenously every three weeks.

[10] = test system: Stage IV EGFR positive breast cancer tumors; assay: Example VIII: breast cancer with Stage IV EGFR positive tumors; assay type: in vivo, human; conditions: oral 5 mg/kg twice daily in combination with CETUXIMAB and Taxol
[11] = test system: EGFR positive breast cancer; assay: Example IX: adjuvant therapy after mastectomy; assay type: in vivo, human; conditions: patient, oral 5 mg/kg twice daily for five years after mastectomy
[12] = test system: HER-2/neu positive colon cancer; assay: Example V: after resection of colon cancer; assay type: in vivo, human; conditions: patient, oral 5 mg/kg twice daily for five years after resection

Structure (SMILES) | pKi in binding assay using the human PPARγ binding domain [3] | tumor burden [4] | recurrence of breast cancer [5] | tumor burden [6] | recurrence of breast cancer [7] | tumor burden [8] | other results
CCCCC/C=C/C=C1/C(=O)C=C[C@@H]1C/C=C\CCCC(=O)O [15-d-PGJ2, 15-deoxy-Δ12, 14-prostaglandin J2] |  |  |  |  |  |  | amount of HER-2/neu (immunoblot) [1]: decreased the amount of HER-2/neu; amounts of HER-2/neu mRNA (Northern blot) (HER-2/neu mRNA): decrease amounts of HER-2/neu mRNA; EGFR promoter activity (luciferase normalized to β-galactosidase) (EGFR promoter): inhibited EGFR promoter activity in a dose-dependent fashion; amounts of EGFR (immunoblot) [2]: decreased amounts of EGFR; HER-2/neu promoter activity (luciferase normalized to β-galactosidase) (HER-2/neu promoter): inhibited HER-2 neu promoter activity in a dose-dependent fashion
CCOC(=O)c1ccccc1N[C@@H](Cc1ccc(OCCc2nc(-c3ccccc3)oc2C)cc1)C(=O)O [#64] | 8.52±0.03 |  |  |  |  |  | 
CCCOC(=O)c1ccccc1N[C@@H](Cc1ccc(OCCc2nc(-c3ccccc3)oc2C)cc1)C(=O)O [#65] | 8.62±0.03 |  |  |  |  |  | 
Cc1oc(-c2ccccc2)nc1CCOc1ccc(C[C@H](Nc2ccccc2C(=O)OC(C)C)C(=O)O)cc1 [#66] | 9.01±0.00 |  |  |  |  |  | 
COC(=O)c1ccccc1N[C@@H](Cc1ccc(OCCc2nc(-c3ccccc3)oc2C)cc1)C(=O)O [GW7845, (S)-2-(1-carboxy-2-{4-[2-(5-methyl-2-phenyloxazol-4-yl)ethoxy]phenyl}ethylamino)benzoic acid methyl ester] |  | further reduced tumor burden | recurrence of breast cancer does not occur | reduced tumor burden | Recurrence of breast cancer does not occur | reduced tumor burden | solubility (physchem): 300 µg/mL (≈ 599 µM)
CN(CCOc1ccc(CC2SC(=O)NC2=O)cc1)c1ccccn1 (stereo not drawn) [rosiglitazone] | 7.33±0.02 | further reduced tumor burden | Recurrence of breast cancer does not occur | reduced tumor burden | Recurrence of breast cancer does not occur | reduced tumor burden | tumor burden [9]: reduced tumor burden; tumor burden [10]: reduced tumor burden; recurrence of breast cancer [11]: Recurrence of breast cancer dose not occur; recurrence of colon cancer [12]: Recurrence of colon cancer does not occur
CN(CCOc1ccc(C[C@H](Nc2ccccc2C(=O)c2ccccc2)C(=O)O)cc1)c1nc2ccccc2o1 [structure (II), 3-{4-[2-benzoxazol-2-ylmethylamino)ethoxy](phenyl}-(2S)-((2-benzoylphenyl)amino)propionic acid] | 8.83±0.05 | further reduced tumor burden | recurrence of breast cancer does not occur | reduced tumor burden | Recurrence of breast cancer does not occur | reduced tumor burden | tumor burden [9]: reduced tumor burden; recurrence of breast cancer [11]: Recurrence of breast cancer dose not occur; recurrence of colon cancer [12]: Recurrence of colon cancer does not occur
